# Assay results reported in PMC6153936, “Bisarylureas Based on 1H-Pyrazolo[3,4-d]pyrimidine Scaffold as Novel Pan-RAF Inhibitors with Potent Anti-Proliferative Activities: Structure-Based Design, Synthesis, Biological Evaluation and Molecular Modelling Studies” (Molecules : A Journal of Synthetic Chemistry and Natural …, 2017).
# Legend:
# BRAF^V600E = molecular target: T1, BRAF^V600E (Homo sapiens, UniProt P15056, V600E); experiment: BRAF^V600E kinase inhibition, Z'-LYTE; format: biochemical; conditions: for inhibition at 0.1 µM: 100 nM; for inhibition at 0.1 µM / inhibition at 1 µM: average of two independent experiments; for inhibition at 1 µM: 1000 nM; for IC50: ten concentrations 1000 to 0.0508 nM, two independent experiments
# T1 construct: purchased Life Technologies
# Description: The experiments were performed according to the instructions of the manufacturer, and single point concentration testing with two independent data points (n = 2). […] The IC50 values were calculated from the inhibition curves from two separate experiments.
# A375 = experiment: MTT anti-proliferative assay, A375; format: cell-based; conditions: Homo sapiens, A-375, 48 h
# Description: (§1) All cell lines were purchased from Cell Bank of China Science Academy (Shanghai, China). All chemicals and solvents were purchased from Sigma-Aldrich (St. Louis, MO, USA) or Gibco (Gibco BRL, Grand Island, NY, USA). The PC-3 and A375 cell lines was maintained in Dulbecco's modified eagle (DEME) medium supplement with 10% fetal bovine serum (FBS) and 1% penicillin–streptomycin. The others were cultured in Roswell Park Memorial Institute (RPMI) 1640 medium supplement with 10% fetal bovine serum (FBS) and 1% penicillin–streptomycin. Approximately 5 × 10^3 cells, suspended in medium, were plated into each well of a 96-well plate and grown at 37 °C in a humidified atmosphere with 5% CO2 for 24 h. The following day, various concentrations of tested compounds were added to the culture medium and incubated for 48 h. Fresh MTT was added to each well at the terminal concentration of 5 mg/mL in phosphate buffered saline (PBS), and incubated with cells at 37 °C for 4 h. The formazan crystals in each well were dissolved in 150 μL DMSO, and the absorbency at 570 nm was measured with an enzyme-linked immunosorbent assay plate reader. All of the compounds were tested three times in each of the cell lines.
# HT-29 = experiment: MTT anti-proliferative assay, HT-29; format: cell-based; conditions: Homo sapiens, 48 h
# Description: as §1
# PC-3 = experiment: MTT anti-proliferative assay, PC-3; format: cell-based, human; conditions: Homo sapiens, PC-3; MTT, 48 h
# Description: as §1
# A549 = experiment: MTT anti-proliferative assay, A549; format: cell-based, human; conditions: Homo sapiens, A549; MTT, 48 h
# Description: as §1
# [1] = MTT cytotoxic assay, normal cell line MDCK; conditions: dog, MDCK cells (normal cell line)
# Description: as §1
# T1 sequence (P15056 whole entry V600E): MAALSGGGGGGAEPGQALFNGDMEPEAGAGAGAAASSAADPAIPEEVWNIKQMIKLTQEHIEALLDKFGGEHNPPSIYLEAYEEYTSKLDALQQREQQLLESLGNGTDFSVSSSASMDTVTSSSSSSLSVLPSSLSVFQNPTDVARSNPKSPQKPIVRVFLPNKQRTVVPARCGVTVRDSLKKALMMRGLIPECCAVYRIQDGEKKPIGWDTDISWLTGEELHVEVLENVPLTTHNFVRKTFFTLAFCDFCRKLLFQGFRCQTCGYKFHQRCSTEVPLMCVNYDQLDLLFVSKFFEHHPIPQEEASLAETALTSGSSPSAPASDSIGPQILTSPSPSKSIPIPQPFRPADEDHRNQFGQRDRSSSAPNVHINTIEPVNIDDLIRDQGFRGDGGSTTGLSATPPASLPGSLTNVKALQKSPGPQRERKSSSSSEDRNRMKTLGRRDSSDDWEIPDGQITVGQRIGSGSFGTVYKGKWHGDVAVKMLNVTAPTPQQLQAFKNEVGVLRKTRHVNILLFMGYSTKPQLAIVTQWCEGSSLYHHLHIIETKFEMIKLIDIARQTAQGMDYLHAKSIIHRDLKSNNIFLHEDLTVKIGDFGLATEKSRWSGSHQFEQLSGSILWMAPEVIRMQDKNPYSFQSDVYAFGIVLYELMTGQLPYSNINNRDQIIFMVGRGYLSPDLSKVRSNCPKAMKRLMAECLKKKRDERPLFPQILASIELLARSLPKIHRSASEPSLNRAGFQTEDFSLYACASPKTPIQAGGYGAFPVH
Structure (SMILES),inhibition at 0.1 µM (BRAF^V600E) [%],inhibition at 1 µM (BRAF^V600E) [%],IC50 (BRAF^V600E) [µM],IC50 (A375) [µM],IC50 (HT-29) [µM],IC50 (PC-3) [µM],IC50 (A549) [µM],melting point [°C],IC50 at 48 h [1] [µM]
"CCc1cccc(NC(=O)Nc2ccc(Oc3ncnc4[nH]ncc34)cc2)c1 [Compound 1l, 1-(4-((1H-Pyrazolo[3,4-d]pyrimidin-4-yl)oxy)phenyl)-3-(3-ethylphenyl)urea]",60,69,0.0513,75.6,71.2,> 80,19.9,219.5 to 221.5,> 80
"O=C(Nc1ccc(Oc2ncnc3[nH]ncc23)cc1)Nc1cccc([N+](=O)[O-])c1 [Compound 1m, 1-(4-((1H-Pyrazolo[3,4-d]pyrimidin-4-yl)oxy)phenyl)-3-(3-nitrophenyl)urea]",3,62,,64,31.7,23.4,> 80,229.2 to 231.4,> 80
"O=C(Nc1ccc(Oc2ncnc3[nH]ncc23)cc1)Nc1cc(C(F)(F)F)ccc1F [Compound 1n, 1-(4-((1H-Pyrazolo[3,4-d]pyrimidin-4-yl)oxy)phenyl)-3-(2-fluoro-5-(trifluoromethyl)phenyl)urea]",30,87,,5.39,27.8,40.3,32.1,,23.1
"CSc1cccc(NC(=O)Nc2ccc(Oc3ncnc4[nH]ncc34)cc2)c1 [Compound 1o, 1-(4-((1H-Pyrazolo[3,4-d]pyrimidin-4-yl)oxy)phenyl)-3-(3-(methylthio)phenyl)urea]",29,69,,> 80,> 80,5.34,30,227.3 to 228.4,> 80
"N#Cc1cccc(NC(=O)Nc2ccc(Oc3ncnc4[nH]ncc34)cc2)c1 [Compound 1p, 1-(4-((1H-Pyrazolo[3,4-d]pyrimidin-4-yl)oxy)phenyl)-3-(3-cyanophenyl)urea]",,48,,61.8,39.4,30.9,59.5,235.2 to 237.4,> 80
"COC(=O)c1cccc(NC(=O)Nc2ccc(Oc3ncnc4[nH]ncc34)cc2)c1 [Compound 1q, Methyl-3-(3-(4-((1H-pyrazolo[3,4-d]pyrimidin-4-yl)oxy)phenyl)ureido)benzoate]",,32,,> 80,> 80,22.5,> 80,217.3 to 220.1,> 80
"CNC(=O)c1cc(Oc2ccc(NC(=O)Nc3ccc(Cl)c(C(F)(F)F)c3)cc2)ccn1 [Sorafenib, reference compound]",,,,6.81,8.12,13.8,13.7,,14.7

# Further lines, with some results ahead:
inhibition at 0.1 µM (BRAF^V600E) [%],inhibition at 1 µM (BRAF^V600E) [%],IC50 (BRAF^V600E) [µM],IC50 (A375) [µM],IC50 (HT-29) [µM],IC50 (PC-3) [µM],IC50 (A549) [µM],melting point [°C],Structure (SMILES),IC50 at 48 h [1] [µM]
,22,,> 80,> 80,> 80,> 80,359.7 to 360.2,"Cc1ccc([N+](=O)[O-])c(NC(=O)Nc2ccc(Oc3ncnc4[nH]ncc34)cc2)c1 [Compound 1r, 1-(4-((1H-Pyrazolo[3,4-d]pyrimidin-4-yl)oxy)phenyl)-3-(5-methyl-2-nitrophenyl)urea]",> 80
10,71,,65.4,> 80,5.52,> 80,234.5 to 237,"O=C(Nc1ccc(Oc2ncnc3[nH]ncc23)cc1)Nc1cccc(Br)c1 [Compound 1s, 1-(4-((1H-Pyrazolo[3,4-d]pyrimidin-4-yl)oxy)phenyl)-3-(3-bromophenyl)urea]",> 80
28,89,,75.2,> 80,> 80,> 80,249.9 to 250.6,"Cc1ccc(NC(=O)Nc2ccc(Oc3ncnc4[nH]ncc34)cc2)cc1C [Compound 1t, 1-(4-((1H-Pyrazolo[3,4-d]pyrimidin-4-yl)oxy)phenyl)-3-(3,4-dimethylphenyl)urea]",> 80
61,93,0.0381,13.2,> 80,68.9,> 80,309.8 to 312,"Cn1ncc2c(Oc3ccc(NC(=O)Nc4cccc(Cl)c4)cc3)ncnc21 [Compound 1u, 1-(3-Chlorophenyl)-3-(4-((1-methyl-1H-pyrazolo[3,4-d]pyrimidin-4-yl)oxy)phenyl)urea]",> 80
